{"source": "patent US9738634B2", "about": "“Heterocyclic amide compound and herbicide” (SYNGENTA PARTICIPATIONS AG, priority 2013, dated 2017)", "type_in_all_cases": "in vivo", "settings_in_all_cases": "treatment dosage 320 g/ha", "key": {"[1]": {"system": "barnyard grass", "assay": "Test Example 1: weedkilling efficacy, preemergent weed treatment in the submerged state; A: barnyard grass", "how_it_was_run": "(§1)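 Visual scores against set criteria were taken 3 weeks after treatment. Compounds, as diluted emulsions at specified g/ha, went onto the water surface of 4 cm-flooded alluvial soil pots on the day weeds were sown and 2.5-leaf rice was transplanted; greenhouse held 25–30 °C.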"}, "[2]": {"system": "bulrush", "assay": "Test Example 1: weedkilling efficacy, preemergent weed treatment in the submerged state; B: bulrush", "how_it_was_run": "as §1"}, "[3]": {"system": "oval-leafed pondweed", "assay": "Test Example 1: weedkilling efficacy, preemergent weed treatment in the submerged state; C: oval-leafed pondweed", "how_it_was_run": "as §1"}, "[4]": {"system": "transplanted rice", "assay": "Test Example 1: preemergent weed treatment in the submerged state, effect on crop; a: transplanted rice", "how_it_was_run": "as §1"}, "[5]": {"system": "barnyard grass", "assay": "Test Example 2: weedkilling efficacy, growth period weed treatment in the submerged state; A: barnyard grass", "how_it_was_run": "(§2)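 Barnyard grass, bulrush and oval-leafed pondweed sown in alluvial soil under 4 cm flooding, greenhouse 25 to 30° C. At 1-2 leaf stage, water-diluted emulsion applied to the water surface at stated g/ha dosages; effects scored 3 weeks later.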"}, "[6]": {"system": "bulrush", "assay": "Test Example 2: weedkilling efficacy, growth period weed treatment in the submerged state; B: bulrush", "how_it_was_run": "as §2"}, "[7]": {"system": "oval-leafed pondweed", "assay": "Test Example 2: weedkilling efficacy, growth period weed treatment in the submerged state; C: oval-leafed pondweed", "how_it_was_run": "as §2"}, "[8]": {"system": "crabgrass", "assay": "Test Example 3: weedkilling efficacy through soil treatment; D: crabgrass", "how_it_was_run": "(§3)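 Crop and weed responses were judged three weeks after a uniform surface spray of the water-diluted emulsion at the given g/ha rate. Seeds sat beneath about 1.5 cm of sterilized diluvial soil, and boxes stood in a greenhouse at 25 to 30° C.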"}, "[9]": {"system": "green foxtail", "assay": "Test Example 3: weedkilling efficacy through soil treatment; E: green foxtail", "how_it_was_run": "as §3"}, "[10]": {"system": "barnyard grass", "assay": "Test Example 3: weedkilling efficacy through soil treatment; F: barnyard grass", "how_it_was_run": "as §3"}, "[11]": {"system": "wild oat", "assay": "Test Example 3: weedkilling efficacy through soil treatment; G: wild oat", "how_it_was_run": "as §3"}, "[12]": {"system": "black-grass", "assay": "Test Example 3: weedkilling efficacy through soil treatment; H: black-grass", "how_it_was_run": "as §3"}, "[13]": {"system": "Italian ryegrass", "assay": "Test Example 3: weedkilling efficacy through soil treatment; I: Italian ryegrass", "how_it_was_run": "as §3"}, "[14]": {"system": "common wind-grass", "assay": "Test Example 3: weedkilling efficacy through soil treatment; J: common wind-grass", "how_it_was_run": "as §3"}, "[15]": {"system": "Indian mallow", "assay": "Test Example 3: weedkilling efficacy through soil treatment; K: Indian mallow", "how_it_was_run": "as §3"}, "[16]": {"system": "redroot pigweed", "assay": "Test Example 3: weedkilling efficacy through soil treatment; L: redroot pigweed", "how_it_was_run": "as §3"}, "[17]": {"system": "fig-leafed goosefoot", "assay": "Test Example 3: weedkilling efficacy through soil treatment; M: fig-leafed goosefoot", "how_it_was_run": "as §3"}, "[18]": {"system": "chickweed", "assay": "Test Example 3: weedkilling efficacy through soil treatment; N: chickweed", "how_it_was_run": "as §3"}, "[19]": {"system": "catchweed", "assay": "Test Example 3: weedkilling efficacy through soil treatment; O: catchweed", "how_it_was_run": "as §3"}, "[20]": {"system": "birds-eye speedwell", "assay": "Test Example 3: weedkilling efficacy through soil treatment; p: birds-eye speedwell", "how_it_was_run": "as §3"}, "[21]": {"system": "directly sown rice", "assay": "Test Example 3: soil treatment, effect on crop; b: directly sown rice", "how_it_was_run": "as §3"}, "[22]": {"system": "corn", "assay": "Test Example 3: soil treatment, effect on crop; c: corn", "how_it_was_run": "as §3"}, "[23]": {"system": "soybean", "assay": "Test Example 3: soil treatment, effect on crop; d: soybean", "how_it_was_run": "as §3"}, "[24]": {"system": "wheat", "assay": "Test Example 3: soil treatment, effect on crop; e: wheat", "how_it_was_run": "as §3"}, "[25]": {"system": "beet", "assay": "Test Example 3: soil treatment, effect on crop; f: beet", "how_it_was_run": "as §3"}, "[26]": {"system": "rapeseed", "assay": "Test Example 3: soil treatment, effect on crop; g: rapeseed", "how_it_was_run": "as §3"}, "[27]": {"system": "crabgrass", "assay": "Test Example 4: weedkilling efficacy by foliar treatment; D: crabgrass", "how_it_was_run": "(§4)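 Seeds are spot-sown into sterilized diluvial soil and covered with about 1.5 cm of soil. After 14 days' greenhouse growth at 25 to 30° C, plants are sprayed on stems and leaves with diluted emulsion at the stated g/ha rate, then scored at 3 weeks.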"}, "[28]": {"system": "green foxtail", "assay": "Test Example 4: weedkilling efficacy by foliar treatment; E: green foxtail", "how_it_was_run": "as §4"}, "[29]": {"system": "barnyard grass", "assay": "Test Example 4: weedkilling efficacy by foliar treatment; F: barnyard grass", "how_it_was_run": "as §4"}, "[30]": {"system": "wild oat", "assay": "Test Example 4: weedkilling efficacy by foliar treatment; G: wild oat", "how_it_was_run": "as §4"}, "[31]": {"system": "black-grass", "assay": "Test Example 4: weedkilling efficacy by foliar treatment; H: black-grass", "how_it_was_run": "as §4"}, "[32]": {"system": "Italian ryegrass", "assay": "Test Example 4: weedkilling efficacy by foliar treatment; I: Italian ryegrass", "how_it_was_run": "as §4"}, "[33]": {"system": "common wind-grass", "assay": "Test Example 4: weedkilling efficacy by foliar treatment; J: common wind-grass", "how_it_was_run": "as §4"}, "[34]": {"system": "Indian mallow", "assay": "Test Example 4: weedkilling efficacy by foliar treatment; K: Indian mallow", "how_it_was_run": "as §4"}, "[35]": {"system": "redroot pigweed", "assay": "Test Example 4: weedkilling efficacy by foliar treatment; L: redroot pigweed", "how_it_was_run": "as §4"}, "[36]": {"system": "fig-leafed goosefoot", "assay": "Test Example 4: weedkilling efficacy by foliar treatment; M: fig-leafed goosefoot", "how_it_was_run": "as §4"}, "[37]": {"system": "chickweed", "assay": "Test Example 4: weedkilling efficacy by foliar treatment; N: chickweed", "how_it_was_run": "as §4"}, "[38]": {"system": "catchweed", "assay": "Test Example 4: weedkilling efficacy by foliar treatment; O: catchweed", "how_it_was_run": "as §4"}, "[39]": {"system": "birds-eye speedwell", "assay": "Test Example 4: weedkilling efficacy by foliar treatment; p: birds-eye speedwell", "how_it_was_run": "as §4"}, "[40]": {"system": "directly sown rice", "assay": "Test Example 4: foliar treatment, effect on crop; b: directly sown rice", "how_it_was_run": "as §4"}, "[41]": {"system": "corn", "assay": "Test Example 4: foliar treatment, effect on crop; c: corn", "how_it_was_run": "as §4"}, "[42]": {"system": "soybean", "assay": "Test Example 4: foliar treatment, effect on crop; d: soybean", "how_it_was_run": "as §4"}, "[43]": {"system": "wheat", "assay": "Test Example 4: foliar treatment, effect on crop; e: wheat", "how_it_was_run": "as §4"}, "[44]": {"system": "beet", "assay": "Test Example 4: foliar treatment, effect on crop; f: beet", "how_it_was_run": "as §4"}, "[45]": {"system": "rapeseed", "assay": "Test Example 4: foliar treatment, effect on crop; g: rapeseed", "how_it_was_run": "as §4"}}}
{"smiles": "CC1=C(c2ccccc2)C(=O)N(C(C)(C)C(=O)Nc2cc(C#N)ccn2)CO1", "note": "[B-2-62]", "values": [{"measurement": "A (barnyard grass) weedkilling efficacy grade", "setting": "[1]", "value": "5 (weed kill ratio 90% or more, (practically complete withering))"}, {"measurement": "B (bulrush) weedkilling efficacy grade", "setting": "[2]", "value": "5 (weed kill ratio 90% or more, (practically complete withering))"}, {"measurement": "C (oval-leafed pondweed) weedkilling efficacy grade", "setting": "[3]", "value": "5 (weed kill ratio 90% or more, (practically complete withering))"}, {"measurement": "a (transplanted rice) effect on crop grade", "setting": "[4]", "value": "1 (weed kill ratio 5% or more, less than 20%)"}, {"measurement": "A (barnyard grass) weedkilling efficacy grade", "setting": "[5]", "value": "4 (weed kill ratio 70% or more, less than 90%)"}, {"measurement": "B (bulrush) weedkilling efficacy grade", "setting": "[6]", "value": "3 (weed kill ratio 40% or more, less than 70%)"}, {"measurement": "C (oval-leafed pondweed) weedkilling efficacy grade", "setting": "[7]", "value": "5 (weed kill ratio 90% or more, (practically complete withering))"}, {"measurement": "D (crabgrass) weedkilling efficacy grade", "setting": "[8]", "value": "4 (weed kill ratio 70% or more, less than 90%)"}, {"measurement": "E (green foxtail) weedkilling efficacy grade", "setting": "[9]", "value": "4 (weed kill ratio 70% or more, less than 90%)"}, {"measurement": "F (barnyard grass) weedkilling efficacy grade", "setting": "[10]", "value": "3 (weed kill ratio 40% or more, less than 70%)"}, {"measurement": "G (wild oat) weedkilling efficacy grade", "setting": "[11]", "value": "3 (weed kill ratio 40% or more, less than 70%)"}, {"measurement": "H (black-grass) weedkilling efficacy grade", "setting": "[12]", "value": "3 (weed kill ratio 40% or more, less than 70%)"}, {"measurement": "I (Italian ryegrass) weedkilling efficacy grade", "setting": "[13]", "value": "4 (weed kill ratio 70% or more, less than 90%)"}, {"measurement": "J (common wind-grass) weedkilling efficacy grade", "setting": "[14]", "value": "5 (weed kill ratio 90% or more, (practically complete withering))"}, {"measurement": "K (Indian mallow) weedkilling efficacy grade", "setting": "[15]", "value": "0 (weed kill ratio 5% or less (practically no effect))"}, {"measurement": "L (redroot pigweed) weedkilling efficacy grade", "setting": "[16]", "value": "2 (weed kill ratio 20% or more, less than 40%)"}, {"measurement": "M (fig-leafed goosefoot) weedkilling efficacy grade", "setting": "[17]", "value": "3 (weed kill ratio 40% or more, less than 70%)"}, {"measurement": "N (chickweed) weedkilling efficacy grade", "setting": "[18]", "value": "3 (weed kill ratio 40% or more, less than 70%)"}, {"measurement": "O (catchweed) weedkilling efficacy grade", "setting": "[19]", "value": "0 (weed kill ratio 5% or less (practically no effect))"}, {"measurement": "P (birds-eye speedwell) weedkilling efficacy grade", "setting": "[20]", "value": "4 (weed kill ratio 70% or more, less than 90%)"}, {"measurement": "b (directly sown rice) effect on crop grade", "setting": "[21]", "value": "0 (weed kill ratio 5% or less (practically no effect))"}, {"measurement": "c (corn) effect on crop grade", "setting": "[22]", "value": "0 (weed kill ratio 5% or less (practically no effect))"}, {"measurement": "d (soybean) effect on crop grade", "setting": "[23]", "value": "0 (weed kill ratio 5% or less (practically no effect))"}, {"measurement": "e (wheat) effect on crop grade", "setting": "[24]", "value": "0 (weed kill ratio 5% or less (practically no effect))"}, {"measurement": "f (beet) effect on crop grade", "setting": "[25]", "value": "0 (weed kill ratio 5% or less (practically no effect))"}, {"measurement": "g (rapeseed) effect on crop grade", "setting": "[26]", "value": "0 (weed kill ratio 5% or less (practically no effect))"}, {"measurement": "D (crabgrass) weedkilling efficacy grade", "setting": "[27]", "value": "3 (weed kill ratio 40% or more, less than 70%)"}, {"measurement": "E (green foxtail) weedkilling efficacy grade", "setting": "[28]", "value": "3 (weed kill ratio 40% or more, less than 70%)"}, {"measurement": "F (barnyard grass) weedkilling efficacy grade", "setting": "[29]", "value": "3 (weed kill ratio 40% or more, less than 70%)"}, {"measurement": "G (wild oat) weedkilling efficacy grade", "setting": "[30]", "value": "1 (weed kill ratio 5% or more, less than 20%)"}, {"measurement": "H (black-grass) weedkilling efficacy grade", "setting": "[31]", "value": "3 (weed kill ratio 40% or more, less than 70%)"}, {"measurement": "I (Italian ryegrass) weedkilling efficacy grade", "setting": "[32]", "value": "2 (weed kill ratio 20% or more, less than 40%)"}, {"measurement": "J (common wind-grass) weedkilling efficacy grade", "setting": "[33]", "value": "4 (weed kill ratio 70% or more, less than 90%)"}, {"measurement": "K (Indian mallow) weedkilling efficacy grade", "setting": "[34]", "value": "4 (weed kill ratio 70% or more, less than 90%)"}, {"measurement": "L (redroot pigweed) weedkilling efficacy grade", "setting": "[35]", "value": "4 (weed kill ratio 70% or more, less than 90%)"}, {"measurement": "M (fig-leafed goosefoot) weedkilling efficacy grade", "setting": "[36]", "value": "3 (weed kill ratio 40% or more, less than 70%)"}, {"measurement": "N (chickweed) weedkilling efficacy grade", "setting": "[37]", "value": "2 (weed kill ratio 20% or more, less than 40%)"}, {"measurement": "O (catchweed) weedkilling efficacy grade", "setting": "[38]", "value": "1 (weed kill ratio 5% or more, less than 20%)"}, {"measurement": "P (birds-eye speedwell) weedkilling efficacy grade", "setting": "[39]", "value": "4 (weed kill ratio 70% or more, less than 90%)"}, {"measurement": "b (directly sown rice) effect on crop grade", "setting": "[40]", "value": "0 (weed kill ratio 5% or less (practically no effect))"}, {"measurement": "c (corn) effect on crop grade", "setting": "[41]", "value": "0 (weed kill ratio 5% or less (practically no effect))"}, {"measurement": "d (soybean) effect on crop grade", "setting": "[42]", "value": "0 (weed kill ratio 5% or less (practically no effect))"}, {"measurement": "e (wheat) effect on crop grade", "setting": "[43]", "value": "0 (weed kill ratio 5% or less (practically no effect))"}, {"measurement": "f (beet) effect on crop grade", "setting": "[44]", "value": "0 (weed kill ratio 5% or less (practically no effect))"}, {"measurement": "g (rapeseed) effect on crop grade", "setting": "[45]", "value": "4 (weed kill ratio 70% or more, less than 90%)"}]}
